Assay results from PMC7377239, “Cardiovascular Effects of Polychlorinated Biphenyls and Their Major Metabolites” (Environmental Health Perspectives, 2020).

Tested on: iPSC-CMs, iPSC-ECs and HUVECs phenotypes
Test: ToxPi 2.0 integration of POD values and physicochemical descriptors
Set-up: species or system human
Conditions: ToxPi-scaled (0-1) score; for huvec.cyto.24hr / huvec.mito.24hr / huvec.mitoint.24hr / huvec.nma.24hr / huvec.tc.24hr / huvec.mtl.18hr / huvec.tlps.18hr / huvec.tta.18hr / huvec.ttl.18hr: HUVECs; for huvec.mtl.18hr / huvec.tlps.18hr / huvec.tta.18hr / huvec.ttl.18hr / endo.mtl.18hr / endo.tlps.18hr / endo.tta.18hr / endo.ttl.18hr: tube formation; for cm.amp.avg.90min / cm.amp.cv.90min / cm.bpm.90min / cm.cam.90min / cm.decay.rise.90min / cm.mii.90min / cm.mito.90min / cm.spacing.cv.90min / cm.tc.90min / cm.amp.avg.24hrs / cm.amp.cv.24hrs / cm.bpm.24hrs / cm.cam.24hrs / cm.decay.rise.24hrs / cm.mii.24hrs / cm.mito.24hrs / cm.spacing.cv.24hrs / cm.tc.24hrs: iPSC cardiomyocytes; for endo.cyto.24hr / endo.mito.24hr / endo.mitoint.24hr / endo.nma.24hr / endo.tc.24hr / endo.mtl.18hr / endo.tlps.18hr / endo.tta.18hr / endo.ttl.18hr: iPSC endothelial cells
Text: Phenotypic responses were quantitatively assessed using concentration–response modeling as detailed elsewhere ([Sirenko et al. 2017]). Briefly, phenotypic readouts were normalized to vehicle controls and fit to a four-parameter logistic model in R studio software (version 3.1.1; R Development Core Team). Following EPA guidance on dose–response modeling, a cutoff of one standard deviation across means of vehicle control (i.e., 0.5% vol/vol DMSO in cell culture media) wells was applied to determine the point-of-departure (POD) values ([U.S. EPA 2012]). In the absence of a concentration–response, the highest tested concentration (i.e., 100μM ) was assigned as “no observable adverse effect level.” The concentration–response assessment R script, as well as templates for vehicle and concentration–response data, are available as a supplement to Sirenko et al. ([2017]). The ability of physicochemical properties to predict differences in PODs were evaluated by multiregression and mixed-effects modeling using R.
POD values were then integrated using ToxPi 2.0 ([Marvel et al. 2018]) software. In ToxPi, each slice is representative of cell type– and time-point–specific phenotypes. The area of each slice is proportional to the relative value (e.g., bioactivity or physicochemical descriptor value) of the chemical within the data set. ToxPi scores were used to rank PCBs and their metabolites according to their overall bioactivity and to determine variability in total observable biological responses and chemical characteristics for each major metabolite class and chlorination status (mono-, hexa-chlorinated). Additional visualizations such as dumbbell and principal components analysis plots were generated in R Studio (version 1.1.456; R version 3.5.1; R Development Core Team) using the ggplot2 package.

| Compound | huvec.cyto.24hr | huvec.mito.24hr | huvec.mitoint.24hr | huvec.nma.24hr | huvec.tc.24hr | huvec.mtl.18hr | huvec.tlps.18hr | huvec.tta.18hr | huvec.ttl.18hr | cm.amp.avg.90min | cm.amp.cv.90min | cm.bpm.90min | cm.cam.90min | cm.decay.rise.90min | cm.mii.90min | cm.mito.90min | cm.spacing.cv.90min | cm.tc.90min | cm.amp.avg.24hrs | cm.amp.cv.24hrs | also measured |
| --- | --- | --- | --- | --- | --- | --- | --- | --- | --- | --- | --- | --- | --- | --- | --- | --- | --- | --- | --- | --- | --- |
| O=C1C=CC(=O)C(c2ccc(Cl)cc2)=C1 [4-Cl-BQ, 2-(4-Chlorophenyl)benzo-2,5-quinone] | 1 | 0.8466 | 0.9878 | 0.6676 | 1 | 0.9933 | 0.5585 | 1 | 0.8997 | 0.3159 | 0.2492 | 0.1564 | 0.4034 | 0.215 | 0.8851 | 0.387 | 0.3114 | 0 | 0.3257 | 0.3094 | cm.bpm.24hrs: 0.6578; cm.cam.24hrs: 1; cm.decay.rise.24hrs: 0.8647; cm.mii.24hrs: 0.2031; cm.mito.24hrs: 0.702; cm.spacing.cv.24hrs: 0.7459; cm.tc.24hrs: 0; endo.cyto.24hr: 0.5702; endo.mito.24hr: 0.5702; endo.mitoint.24hr: 0.2683; endo.nma.24hr: 0.3599; endo.tc.24hr: 0.6463; endo.mtl.18hr: 0.5822; endo.tlps.18hr: 0.7309; endo.tta.18hr: 0.1339; endo.ttl.18hr: 0.1969 |
| COc1cc(Cl)c(-c2cc(Cl)ccc2Cl)cc1Cl [4-OMe-PCB 52, 4-methoxy-2,2′,5,5′-tetrachlorobiphenyl] | 0.503 | 0.6182 | 0.7163 | 0.4778 | 0.503 | 0.3949 | 0.3694 | 0 | 0 | 0.7151 | 0.1921 | 0.6456 | 0.5317 | 0.5533 | 0.2088 | 0.6868 | 0.09243 | 0.4554 | 0 | 0.07106 | cm.bpm.24hrs: 0.2075; cm.cam.24hrs: 0.1487; cm.decay.rise.24hrs: 0.2631; cm.mii.24hrs: 0.763; cm.mito.24hrs: 0.2211; cm.spacing.cv.24hrs: 0.2504; cm.tc.24hrs: 0.2416; endo.cyto.24hr: 0.1456; endo.mito.24hr: 0.1456; endo.mitoint.24hr: 0; endo.nma.24hr: 0.1018; endo.tc.24hr: 0.1602; endo.mtl.18hr: 0.06827; endo.tlps.18hr: 0.09286; endo.tta.18hr: 0.06026; endo.ttl.18hr: 0.05573 |
| COc1ccc(-c2ccc(Cl)cc2)cc1 [4'-OMe-PCB 3, 4′-methoxy-4-chlorobiphenyl] | 0.2539 | 0.3347 | 0.2259 | 0.5435 | 0.2539 | 0.5905 | 0.1332 | 0.4823 | 0.3839 | 0.148 | 0.2333 | 0.4231 | 0 | 0 | 0 | 0 | 0.06946 | 0 | 0.1468 | 0 | cm.bpm.24hrs: 0.4274; cm.cam.24hrs: 0.02517; cm.decay.rise.24hrs: 0.569; cm.mii.24hrs: 0; cm.mito.24hrs: 0; cm.spacing.cv.24hrs: 0.5026; cm.tc.24hrs: 0; endo.cyto.24hr: 0; endo.mito.24hr: 0; endo.mitoint.24hr: 0.218; endo.nma.24hr: 0; endo.tc.24hr: 0; endo.mtl.18hr: 0.3533; endo.tlps.18hr: 0.3362; endo.tta.18hr: 0.2327; endo.ttl.18hr: 0.2433 |
| Oc1ccc(O)c(-c2ccc(Cl)cc2)c1 [2',5'-diOH-PCB 3, 4-Chloro-2′,5′-dihydroxybiphenyl] | 0.7001 | 0.7865 | 0.6634 | 0.309 | 0.7001 | 0.9783 | 0.7891 | 0.8497 | 0.663 | 0.2608 | 0.5898 | 0.1802 | 0.4648 | 0.2325 | 0.9473 | 0.8423 | 0.3549 | 0.4501 | 0.4147 | 0.7626 | cm.bpm.24hrs: 0.7331; cm.cam.24hrs: 0.5361; cm.decay.rise.24hrs: 0.935; cm.mii.24hrs: 1; cm.mito.24hrs: 1; cm.spacing.cv.24hrs: 1; cm.tc.24hrs: 0.9136; endo.cyto.24hr: 0.4719; endo.mito.24hr: 0.4719; endo.mitoint.24hr: 0.1112; endo.nma.24hr: 0.3504; endo.tc.24hr: 0.5028; endo.mtl.18hr: 0.5595; endo.tlps.18hr: 0.8388; endo.tta.18hr: 0.3744; endo.ttl.18hr: 0.3867 |
| Oc1ccccc1-c1ccc(Cl)cc1 [2'-OH-PCB 3] | 0.3062 | 0.3804 | 0.2116 | 0.5273 | 0.3062 | 0 | 0.9781 | 0 | 0 | 1 | 1 | 0.6048 | 0.4595 | 0.9737 | 0.8925 | 0.3599 | 0.3323 | 0.4365 | 0.2407 | 0.05985 | cm.bpm.24hrs: 0.1658; cm.cam.24hrs: 0.1217; cm.decay.rise.24hrs: 0.6737; cm.mii.24hrs: 0.7202; cm.mito.24hrs: 0.2606; cm.spacing.cv.24hrs: 0.1842; cm.tc.24hrs: 0.2359; endo.cyto.24hr: 0.1423; endo.mito.24hr: 0.1423; endo.mitoint.24hr: 0; endo.nma.24hr: 0.7069; endo.tc.24hr: 0.06754; endo.mtl.18hr: 0.2097; endo.tlps.18hr: 0.3809; endo.tta.18hr: 0.1099; endo.ttl.18hr: 0.1352 |
| Oc1cc(Cl)cc(-c2cccc(Cl)c2)c1 [5-OH-PCB 11] | 0.4815 | 0.5672 | 0.6755 | 0.5619 | 0.4815 | 0.5955 | 0 | 0 | 0.1684 | 0.6478 | 0.2678 | 0.7407 | 0.7498 | 0.5778 | 0.4013 | 0.8059 | 0.07982 | 0.8069 | 0.069 | 0.2233 | cm.bpm.24hrs: 0.1451; cm.cam.24hrs: 0.2664; cm.decay.rise.24hrs: 0.2666; cm.mii.24hrs: 0.6539; cm.mito.24hrs: 0.4142; cm.spacing.cv.24hrs: 0.2695; cm.tc.24hrs: 0.5144; endo.cyto.24hr: 0.1503; endo.mito.24hr: 0.1503; endo.mitoint.24hr: 0.08226; endo.nma.24hr: 0.3443; endo.tc.24hr: 0.1482; endo.mtl.18hr: 0.3075; endo.tlps.18hr: 0.4586; endo.tta.18hr: 0.2424; endo.ttl.18hr: 0.241 |
